Measurements: ChEMBL document CHEMBL2057158, “Synthesis and cytotoxic activity of 4-N-carboxybutyl-5-fluorocytosyl-Arg-Gln-Trp-Arg-Arg-Trp-Trp-Gln-Arg-NH₂” (Bioorg Med Chem Lett, 2012)
Activity calls are given as the source filed them.

How the values were obtained:
Type in all cases: functional, cell-based
[1] = tested on: HepG2; test: Cytotoxicity against human HepG2 cells at 4 to 10 mM after 24 hrs by MTT assay
[2] = tested on: HepG2; test: Cytotoxicity in human HepG2 cells assessed as alteration of mitochondrial membrane potential by TMRM-fluorescence based high content screening assay
[3] = tested on: HepG2; test: Cytotoxicity in human HepG2 cells assessed as elevation of intracellular calcium concentration by Fluo4AM-fluorescence based high content screening assay
[4] = tested on: HepG2; test: Induction of apoptosis in human HepG2 cells assessed as morphological nuclear changes by Hoechst33342-staining based high content screening assay

Measured: Activity

Nc1nc(=O)[nH]cc1F
inactive: all assays above
